Results from US8618127B2, “Methods and compositions for alleviating stuttering” (Endo Pharmaceuticals Solutions Inc., priority 2000, dated 2013).

Columns and labels:
[1] = Stuttering of a patient treated with pagoclone in a double-blind placebo-controlled panic disorder clinical trial; type: in vivo, human
Method: A patient is enrolled in a clinical trial examining the efficacy and safety of pagoclone, a drug which works at the GABAA receptor, in the treatment of panic disorder, an anxiety disorder. […] The double-blind placebo-controlled trial conceals the drug type until the conclusion of the trial. During the trial the patient is taking 0.60 mg pagoclone/day (0.20 mg t.i.d.). The patient had never before experienced this sort of an effect on their stuttering and they had taken, in the past, other anti-anxiety medications for their psychiatric condition, none of which had such an effect on their stuttering. During the trial, both they and the clinician treating them in the clinical trial notice the reduction in their stuttering, which is documented at their week 2 visit. […] During the trial they also are taking ibuprofen and a prophylactic for urinary tract infections.

[2] = Elliot et al. 1985; cited from earlier work
[3] = eight-week course, randomized patients; cited from earlier work

CC(C)CCC(=O)CC1c2ccccc2C(=O)N1c1ccc2ccc(Cl)nc2n1 (single isomer, unassigned; (+)) [pagoclone, (+)2-(7-chloro-1,8-naphthyridine-2-yl)-3-(5-methyl-2-oxo-hexyl)-1-isoindolinone]
effect on stuttering while taking the drug ([1]; patient, fairly severe stuttering, 0.60 mg pagoclone/day (0.20 mg t.i.d.), documented at week 2 visit): significant reduction in their fairly severe stuttering problem
effect on anxiety and psychiatric condition ([1]; same patient with panic disorder, 0.60 mg pagoclone/day): reduction in their anxiety and improvement in their psychiatric condition
stuttering after stopping the drug ([1]; same patient, after stopping pagoclone): returns to the pre-drug level within a day

Cc1nnc2n1-c1ccc(Cl)cc1C(c1ccccc1)=NC2 [Alprazolam]
drug-induced stuttering [2]: can induce stuttering

O=C(CCCN1CCC(O)(c2ccc(Cl)cc2)CC1)c1ccc(F)cc1 [haloperidol]
effect on stuttering, objective measures of speech [3]: significant improvement
